Reference: patent US20080166310A1, “Administration of 2-oxyacetamide compounds for promoting and/or inducing and/or stimulating the pigmentation of keratin materials and/or for limiting the depigmentation and/or bleaching thereof” (L'OREAL, priority 2005, published 2008)

System: tyrosinase activity of normal human melanocytes
Assay: Effect on the tyrosinase activity of normal human melanocytes in culture (L-Dopa substrate, absorbance 450 nm)
Assay type: cell-based
Conditions: 72 hours, normal human epidermal melanocytes
Experimental: Melanocyte Culture Conditions:
Normal human epidermal melanocytes are cultured (9th passage) in “melanocytes growth medium M2” supplemented with Promocell C24300 supplements 50 IU/ml of penicillin and 50 μg/ml of streptomycin (Invitrogen) under standard temperature conditions (37° C.) and 5% CO2.
Preparation of the Solutions of the Test Compound:
The compound is dissolved in absolute ethanol (PGE2) or in DMSO (15-PGDH inhibitors). The final titer of the prepared solutions is 10 mM. The final test concentrations range from 0.1 to 10 μM (PGE2) and 1 to 10 μM (15-PGDH inhibitors).
The tests performed consist in measuring the inhibitory effect on 15-PGDH alone or combined with PGE2* on the overall activity of tyrosinase.
PGE2 is a pigmentation modulator that is deactivated by the enzyme 15-PGDH.
The melanocytes are cultured in 96-well plates, to the point of confluence (culture conditions described in a), and the supernatant of each of the wells is then removed and replaced with medium containing the compounds to be evaluated, i.e., (in triplicate) the 15-PGDH inhibitor alone at 1 μM and 10 μM or for each of these first conditions in the presence of 0.1 μM, 1 μM or 10 μM of PGE2.
The cultures are maintained under these various conditions for 72 hours, the supernatants are then removed and the cell carpets are washed with a phosphate buffer (pH=7.2). The cells are lysed with a pH 7.2 phosphate buffer containing 1% Triton X100.
The tyrosinase activity of each of the lysates is then estimated against a fungal tyrosinase range (Sigma T7755).
The methodology employed uses L-Dopa as reaction substrate (45 minutes at 37° C.), and the formation of melanin is assessed by measuring the absorbance at 450 nm.
In this test, two references are also evaluated: kojic acid (a tyrosinase inhibitor introduced at 0.1% into the culture medium) and isobutylmethylxanthine (IBMX), a phosphodiesterase inhibitor which, by limiting the catabolism of cAMP, contributes towards increasing the overall tyrosinase activity as assessed in this test.

SMILES: CCCCC[C@H](O)/C=C/[C@H]1[C@H](O)CC(=O)[C@@H]1C/C=C\CCCC(=O)O [PGE2, prostaglandin E2]
- stimulation of the activity of tyrosinase (PGE2 alone at 1 μM): 9%
- stimulation of the activity of tyrosinase (PGE2 alone at 10 μM): 15%

SMILES: O=C(COc1cccc(Cl)c1)NCc1ccco1 [Compound 23, 2-(3-chlorophenoxy)-N-furan-2-ylmethylacetamide]
- stimulation of the tyrosinase activity (Compound 23 (1 μM) + PGE2 (1 μM)): 31%
- stimulation of the tyrosinase activity (Compound 23 (1 μM) + PGE2 (10 μM)): 28%
